Reference: patent US12583846B2, “2H-benzopyran derivatives as CRAC inhibitors” (CISEN PHARMACEUTICAL CO., LTD, priority 2019, dated 2026)
Blank lines part the entries; values can stand above or below the compound they belong to.

Tests used:
[1] = tested on: IL-2; experiment: Inhibitory activity on cytokines: IL-2 in supernatant of anti-CD3/anti-CD28 stimulated hPBMC by CBA method; format: cell-based; settings: Homo sapiens, 48 h, anti-CD3/anti-CD28, 2 days incubation
Description: (§1) Human peripheral blood mononuclear cells (hPBMC); supplier: HemaCare; Article Number: PB009C-2
(§2) 96-well plates were coated with 5 μg/mL anti-human CD3 antibody (in DPBS) at […] overnight at 4° C.
(§3) PBMC were removed from liquid nitrogen and immediately placed in a 37° C. water bath for recovery. To a 15 mL centrifuge tube, 5 mL culture medium (RPMI1640 culture medium+10% fetal bovine serum+1% non-essential amino acids+1% penicillin streptomycin+0.05 mM β-mercaptoethanol) was added, and the cell suspension was pipetted to the centrifuge tube, and the mixture was centrifuged at 320 g for 5 minutes. The cells were resuspended with culture medium and counted, and the cell concentration was then adjusted to 5×10^5 cells/mL with the culture medium, To the cell suspension was added anti-human CD28 antibody (final concentration 2 μg/mL), and the mixture was inoculated into a 96-well plate at 200 μL/well.
(§4) Compounds were prepared at the desired concentration and added to the cells. The mixture was incubated at 37° C., 5% CO2 for 2 days.
The standards were prepared according to the instructions of IL-2 and TNFα Flex Set kit. The supernatant of the cultured cells was diluted 5-fold with the buffer provided in the kit and added to a 96-well plate together with the standards. The plated was added with magnetic beads containing antibody from the kit, and incubated at room temperature for 1 hour. The fluorescein PE-labeled secondary antibody in the kit was added and incubated at room temperature for 2 hours. The average fluorescence intensity of the PE channel was detected by flow cytometry. Based on the average fluorescence intensity of the standards, the contents of IL-2 and TNF-α of the samples were calculated.

[2] = tested on: TNF-α; experiment: Inhibitory activity on cytokines: TNFα in supernatant of anti-CD3/anti-CD28 stimulated hPBMC by CBA method; format: cell-based; settings: Homo sapiens, 48 h, anti-CD3/anti-CD28, 2 days incubation
Description: as §1, §2, §3, §4
The standards were prepared according to the instructions of IL-2 and TNFα Flex Set kit. […] The average fluorescence intensity of the PE channel was detected by flow cytometry. Based on the average fluorescence intensity of the standards, the contents of IL-2 and TNF-α of the samples were calculated.

[3] = tested on: bombesin-induced acute pancreatitis model in mice; experiment: Pharmacodynamic test of bombesin-induced acute pancreatitis in mice (compound 6); format: in vivo, C57BL/6 mice; settings: compound 6 intraperitoneal 20 mg/kg; bombesin 50 μg/kg x 7; FIG. 2
Description: Purpose of the experiment: male C57BL/6 mice were used as test animals, and acute pancreatitis was induced by intraperitoneal injection of bombesin. The efficacy of compound 6 on acute pancreatitis was studied.
Drug preparation: an appropriate amount of sample was weighed, and compound 6 was prepared to a 4 mg/mL clear solution with 40% PEG-400+20% Solutol+40%+H2O (v/v).
Experiment scheme: healthy male C57BL/6 mice were injected with bombesin intraperitoneally to induce pancreatitis model, at a dose of 50 μg/kg each time, with 7 injections at an interval of 1 hour. One hour after the seventh injection of bombesin, serum was taken and the levels of amylase and lipase were measured. Compound 6 was administered by intraperitoneal injection at a dose of 20 mg/kg.
Experimental results: see FIG. 2. The levels of plasma amylase (AMY) and lipase (LPS) were analyzed by one-way ANOVA, * * indicates significant difference with G1 (P<0.01), * indicates significant difference with G1 (P<0.05).

[4] = Pharmacokinetic evaluation in mice (intravenous administration of compound 18 or 22, 50 mg/kg); format: in vivo, C57BL/6 mice; settings: for elimination in plasma after administration (in words): intravenous 50 mg/kg
Description: Purpose of the experiment: male C57BL/6 mice were used as test animals, and the LC/MS/MS method was applied to determine the plasma drug concentrations of the compounds at different time points after intravenous administration. The pharmacokinetic behavior of the compounds in mice was studied, and their pharmacokinetic characteristics were evaluated.
Drug preparation: an appropriate amount of sample was weighed to prepare 5 mg/mL of clear solution with sterile normal saline.
Administration scheme: two healthy male C57BL/6 mice purchased from Beijing Vital River Laboratory Animal Technology Co., Ltd. was on a normal diet, with a volume of 10 mL/kg and a dose of 50 mg/kg.
(§5) Procedure: after animal administration, 25 μL of blood was collected at 0.083, 0.25, 0.5, 1, 2, 4, 8, 12, and 24 hours, respectively and placed in a commercial anticoagulative tube pre-loaded with EDTA-K2. The tubes were centrifuged for 10 minutes to separate plasma and stored at −60° C. The content of the corresponding compounds in plasma samples was determined by LC/MS/MS.

[5] = Pharmacokinetic evaluation experiment in mice (intravenous or intraperitoneal injection of compound 6); format: in vivo, C57BL/6 mice
Description: Purpose of the experiment: male C57BL/6 mice were used as test animals, and the plasma drug concentrations of the test compounds were determined by LC/MS/MS at different time points after intravenous or intraperitoneal injection. The pharmacokinetic behavior of the test compound in mice was studied to evaluate its pharmacokinetic characteristics.
Drug preparation: an appropriate amount of sample was weighed to prepare 0.3 mg/mL or 0.5 mg/mL clear solution with 40% PEG400+20% Solutol+40% H2O (volume ratio).
Administration scheme: two healthy male C57BL/6 mice purchased from Beijing Vital River Laboratory Animal Technology Co., Ltd. was on a normal diet. The intravenous injection group was administered with 0.5 mg/mL solution, with a dose volume of 2 mL/kg and a dose of 1 mg/kg. The intraperitoneal injection group was administered with 0.3 mg/mL solution, with a volume of 10 mL/kg and a dose of 3 mg/kg.
as §5, with “target compound” for “the corresponding compounds”

[6] = Thermodynamic solubility test; format: physicochemical; settings: for solubility in water (in words): conclusion of the thermodynamic solubility test
Description: About 2 mg of test compound was weighed into a whatman vial, and 450 μL of phosphate buffer (50 mM, pH=7.4) was added. The stopper of whatman vial was pressed to near the liquid level so that the filter membrane in the stopper is in uniform contact with the liquid level. The vial was shaken well up and down on vortex for two minutes, and the dissolution of test compound in the whatman vial was recorded. The whatman vial was shaken in a shaker at ambient temperature for 24 hours at a rotational speed of 600 r/min. The stopper of whatman vial was slowly pressed to the lowermost part to obtain the supernatant. […] A linear solution (3 standard solutions, 1, 20, 200 μM, n=1) was prepared with diluent. The supernatant was taken out, and 10 μL of the supernatant was accurately taken out and diluted 100 times. The obtained diluent and stock solution and linear solution were simultaneously put into HPLC for detection and analysis, and the results were calculated by an external standard method according to peak area and dilution factor.

[7] = male, C57BL/6, mouse, plasma, intravenous injection, 1 mg/kg
[8] = male, C57BL/6, mouse, plasma, ip, intraperitoneal injection, 3 mg/kg
[9] = administered compound itself in plasma, 50 mg/kg intravenous, mice, 50 mg/kg
[10] = male, C57BL/6, mouse, plasma, iv, 50 mg/kg, administered compound itself in plasma, 50 mg/kg intravenous, mice

SMILES: O=C(Nc1cnc(-c2cc3oc(C4CC4)nc3cc2Cl)cn1)c1c(F)cccc1F [Compound 4]
IC50 [1]: 280 nM

SMILES: O=C(Nc1cnc(-c2cc3oc(C4CC4)cc3cc2Cl)cn1)c1c(F)cccc1F [Compound 6]
IC50 [2]: 138 nM | serum amylase (AMY) level [3]: significantly reduce | serum lipase (LPS) level [3]: significantly reduce | formation of compound 6 in plasma (in words) ([4]; from 5 min of administration of compound 18 or 22, mice): a large amount | IC50 [1]: 63.8 nM | plasma exposure and pharmacokinetic properties (in words) ([5]; intravenous and intraperitoneal routes): higher plasma exposure and desirable pharmacokinetic properties | bioavailability ([5]; male, C57BL/6, mouse, plasma, intraperitoneal 3 mg/kg vs intravenous 1 mg/kg): 125% | AUC(0-t) [5, 7]: 15.6 µM·h | clearance [5, 7]: 2.05 mL/min/kg | half-life [5, 7]: 10.6 h | Vd ([5]; male, C57BL/6, mouse, plasma, intravenous injection, 1 mg/kg, read-out: Vdss): 1.77 L/kg | AUC(0-t) [5, 8]: 62.7 µM·h | Cmax [5, 8]: 5.53 µM | Tmax [5, 8]: 2 h

SMILES: O=C(Nc1cnc(-c2cc3oc(C4COC4)cc3cc2Cl)cn1)c1c(F)cccc1F [Compound 17]
IC50 [2]: 328 nM | IC50 [1]: 173 nM

SMILES: O=C(c1c(F)cccc1F)N(COP(=O)(O)O)c1cnc(-c2cc3oc(C4CC4)cc3cc2Cl)cn1 [Compound 18]
solubility thermodynamic at 24 h ([6]; aqueous buffer, thermodynamic from solid, phosphate buffer 50 mM, pH 7.4, 24 hours, ambient temperature): > 200 µM | solubility in water (in words) [6]: very good | DNAUC0-last (exposure normalized to molar dose) [4, 9]: 0.69 µM·h | AUC(0-t) [4, 10]: 57.2 µM·h | clearance [4, 10]: 25.1 mL/min/kg | half-life [4, 10]: 2.49 h | Vd ([4]; male, C57BL/6, mouse, plasma, iv, 50 mg/kg, administered compound itself in plasma, 50 mg/kg intravenous, mice, read-out: Vdss): 0.84 L/kg | elimination in plasma after administration (in words) ([4]; mice): rapidly eliminated

Results, then the compound that gave them:

solubility in water (in words) [6]: very good | AUC0-last [4, 9]: 37.1 µM·h | CL [4, 9]: 28.9 mL/min/kg | DNAUC0-last (exposure normalized to molar dose) [4, 9]: 0.58 µM·h | T1/2 [4, 9]: 2.53 h | Vdss [4, 9]: 1.05 L/kg | elimination in plasma after administration (in words) ([4]; mice): rapidly eliminated
SMILES: O=C(c1c(F)cccc1F)N(COP(=O)(O)O)c1cnc(-c2cc3oc(C4CC4)cc3cc2Cl)cn1 [Compound 22]

solubility in water (in words) [6]: very good
SMILES: O=C(c1c(F)cccc1F)N(COP(=O)(O)O)c1cnc(-c2cc3oc(C4CC4)cc3cc2Cl)cn1 [Compound 23]
